Data taken from patent US12161669B2, “Compositions and methods for cell targeting therapies” (UMC UTRECHT HOLDING B.V., priority 2017, dated 2024).

What was measured:
Type in all cases: cell-based
RhoB = assay: Intracellular RhoB distribution by confocal microscopy in cell lines; conditions: cell lines (EBV-LCL 48)
Description: For intracellular immunofluorescence staining of RhoB, cells were treated with pamidronate overnight (where indicated) and were allowed to attach onto coverslips precoated with poly-Llysine (Sigma-Aldrich). […] Cells were washed with blocking serum, fixed with 4% paraformaldehyde, stained with DAPI (where indicated), and mounted onto microscopy slides using Mowiol. Images were acquired using a Zeiss confocal laser scanning microscope LSM 700. Ratios between nuclear and extranuclear signal of RhoB was determined using Volocity software (PerkinElmer) or Image J software, where DAPI staining was used, when available, to mark nuclei.

CD277 and F-actin = assay: Colocalization of CD277 and F-actin in HEK 293 cells; conditions: single agent vs medium
Description: To determine colocalization between BTN3 molecules and the actin cytoskeleton, HEK 293 cells were grown onto poly-L-lysin-coated coverslips and pretreated with either calpeptin (2 μg/ml) or C3 transferase (20 μg/ml) prior to treating samples with pamidronate Cells were fixed, permeabilized and BTN3 and F-actin were stained with DyLight 680-conjugated BTN3 antibody (clone BT3.1, Novus Biologicals) and Fluorescein-coupled phalloidin (Sigma), respectively. The correlation coefficient between BTN3 and F-actin signal was determined as a measure of colocalization using Volocity software.

CD277 = assay: Flow cytometry FRET of CD277 homodimerization in HEK 293 cells; conditions: medium vs ABP
Description: In order to determine homodimerization of CD277 molecules, cells were co-stained with equal amount of PE-conjugated anti-CD277 (donor) and […]680-conjugated anti-CD277 (acceptor) and samples were measured using a FACS Canto-II flow cytometer (BD). FRET efficiency was calculated with equations according to Sebestyen and colleagues (Sebestyen et al., 2002) where donor fluorescence was excited at 488 nm and detected at 576±26 nm, acceptor fluorescence was excited at 635 nm and detected at 780±60 nm, whereas FRET intensity was excited at 488 nm and detected at 780±60 nm. Correction factors for the spectral overlap between the different fluorescence channels were obtained from data measured on unlabeled and single-labeled cells.

RhoB and CD277 = assay: Flow cytometry FRET of RhoB-CD277 association in HEK 293 cells; conditions: ABP treated vs untreated
Description: To study association of RhoB and BTN3 molecules, cells were permeabilized by using Permeabilization solution 2 (BD), then blocked with PBS containing 50% Human serum and labeled with rabbit polyclonal anti-RhoB antibody (AbCam). After washing with PBS, samples were labeled with Alexa594-conjugated Goat anti-Rabbit IgG (acceptor) (Jackson ImmunoResearch) and CD277-PE (donor) (BT3.1, Biollegend), respectively. The donor fluorescence was measured using a FACS Canto-II flow cytometer (BD) where donor fluorescence of the double-labeled samples was compared with that of samples labeled only with donor antibody. FRET efficiency was calculated from the fractional decrease of the donor fluorescence in the presence of the acceptor.

Daudi = assay: IFNγ ELISA of γ9δ2T cell clones co-incubated with Daudi
Description: PBMCs were stained with monoclonal antibody (mAb) to Vδ2 (Vδ2-FITC clone B6). The mAb-positive fraction was either sorted in bulk, expanded on REP, and thereafter cloned by limiting dilution (donor A) or single cell-sorted using FACS sort with collection of single cells in 96 well plates (donors B, C). All FACS sorts were performed on ARIAII (BD). Eight to twelve rounds of expansion on REP preceded functional testing. As soon as the cells expanded to sufficient numbers functional testing was performed: 5*10^4 T cells were incubated overnight together with target cells at 1:1 E:T ratio in DMEM supplemented with 10% FCS and 1% pen/strep, without or in the presence of 100 uM Pamidronate Disodium salt (Calbiochem Cat #506600), supernatants were harvested the day after, and IFNγ concentration was measured using ELISA (eBioscience Ready-Set-Go! ELISA kit, Invitrogen Cat #88731688).
In order to assess on a broader range the impact of individual γ9δ2TCR on the functional activity of individual γ92δT cell clones γδ T cell clones were isolated by limiting dilution or FACS sorting. In vitro antitumor activity was determined by IFNγ production against the tumor cell line Daudi. Substantial antitumor functional heterogeneity was observed among the γ9δ2T cell clones (N=57) isolated from 4 healthy donors, with approximately 60% of the clones being reactive to the tumor cell line Daudi (FIG. 13A), when choosing a cut-off of 30 pg/ml for reliable measurement of IFNγ concentration. Bisphopshonates such as pamidronate (PAM) can enhance activity of γ9δ2T cells through induction of CD277J, facilitated by RhoB and sensed by the γ9δ2TCR. In the presence of 100 μM PAM the reactivity of investigated γ9δ2T cell clones was on average 10-fold enhanced (range 0.7-37.3; median 8.1) with >95% of the clones showing reactivity above the threshold when PAM was added (FIG. 13A). In order to assess whether activity profiles where exclusively observed for Daudi cells or also valid for other targets, the cell line HEK293FT, an additional well-characterized γδT cell target, was co-incubated with the isolated γδT cell clones. HEK293FT cell line elicited much lower cytokine secretion in the absence of PAM with only approximately 30% of γ9δ2T cell clones secreting IFNγ above cut-off (FIG. 13B).

`NCCC(O)(P(=O)(O)O)P(=O)(O)O` [pamidronate] was tested, and the “Re-localization of RhoB from the nucleus or nuclear membrane to extranuclear sites” value (RhoB) was “induced”, the “colocalization between CD277 and F-actin” value (CD277 and F-actin) was “markedly reduced” and the “pairing of CD277 molecules (homodimer FRET)” value (CD277) was “insensitive”. For the same molecule, the “close association between RhoB and CD277 (FRET efficiency)” value (RhoB and CD277) was “increased markedly”, the “clones showing reactivity above the threshold” value (Daudi; 100 μM PAM added, cut-off 30 pg/ml IFNγ) was > 95% and the “enhancement of reactivity of γ9δ2T cell clones, average” value (Daudi; 100 μM PAM vs no PAM) was 10 fold. For the same molecule, the “enhancement of reactivity of γ9δ2T cell clones, median” value (Daudi; 100 μM PAM vs no PAM) was 8.1 fold and the “enhancement of reactivity of γ9δ2T cell clones, range” value (Daudi; 100 μM PAM vs no PAM) was 0.7-37.3 fold.
